Where a SMILES comes first, the peptide text is derived from it. Where no end group is shown, it is not given here. [ ]: non-standard residue; d: D form.
Assays:
[1] = test system: murine prothymocytes; conditions: in vitro; cited from earlier work
[2] = test system: cells of the B lineage; conditions: in vitro; cited from earlier work
[3] = test system: autologous rosette-forming cells; conditions: in vivo, athymic mice; cited from earlier work
[4] = test system: T lymphocytes; assay: T lymphocyte proliferation, 3H-thymidine incorporation; assay type: cell-based, male CBA/J or NZB mice; conditions: 48 h culture
Method: T lymphocytes are isolated from spleens of male CBA/J or NZB mice. Cell homogenates are prepared in Hank's balanced salt solution (HBSS). After removal of larger particles and repeated washing of the cells in HBSS they are suspended in minimum essential medium (MEM) and passed through a glass wool column to remove macrophages. The cells are then incubated on a nylon wool column at 37° C., 95% air, 5% CO2, for 45 minutes. The non-adherant T lymphocytes are then eluted from the column, counted, and adjusted to 20×10^6 cells/ml. 50 μl of cells are cultured (37° C., 95% air, 5% CO2) with compound, for 48 hours before the addition of 0.5 μCi. of 3H-thymidine for the last 16 hours of culture. The total volume of the culture system is 200 μl. The cells are then harvested on a multiple automatic sample harvester (Mash II), the glass fiber filter disks placed in 10 ml. of xylene base scintillation fluid, and counted for 1 minute in a liquid scintillation counter. Results are reported as CPM±SE.

Row | Compound | differentiation of murine prothymocytes to thymocytes [1] | differentiative induction of cells of the B lineage [2] | numbers of autologous rosette-forming cells in spleens [3] | CPM ± SE (3H-thymidine incorporation) ([4]; 0.00075 μg/culture, second experiment (blank 19275 ± 1298)) [CPM] | CPM ± SE (3H-thymidine incorporation) ([4]; 0.0015 μg/culture, first experiment (blank 9876 ± 951)) [CPM] | CPM ± SE (3H-thymidine incorporation) ([4]; 0.0015 μg/culture, second experiment (blank 19275 ± 1298)) [CPM] | CPM ± SE (3H-thymidine incorporation) ([4]; 0.006 μg/culture, first experiment (blank 9876 ± 951)) [CPM] | CPM ± SE (3H-thymidine incorporation) ([4]; 0.006 μg/culture, second experiment (blank 19275 ± 1298)) [CPM] | CPM ± SE (3H-thymidine incorporation) ([4]; 0.025 μg/culture, first experiment (blank 9876 ± 951)) [CPM] | CPM ± SE (3H-thymidine incorporation) ([4]; 0.025 μg/culture, second experiment (blank 19275 ± 1298)) [CPM] | CPM ± SE (3H-thymidine incorporation) ([4]; 0.1 μg/culture, first experiment (blank 9876 ± 951)) [CPM]
1 | RKDVY [arginyl-lysyl-aspartyl-valyl-tyrosine] | induced the differentiation of murine prothymocytes to thymocytes | inhibited differentiative induction of cells of the B lineage | reducing the high numbers of autologous rosette-forming cells | – | – | – | – | – | – | – | –
2 | CC(=O)O.CC(=O)O.CC(=O)O.CC(C)[C@H](NC(=O)[C@H](CC(=O)O)NC(=O)[C@H](CCCCN)NC(=O)[C@@H](N)CCCNC(=N)N)C(=O)N[C@H](C)C(N)=O [Arg--Lys--Asp--Val--D--Ala--NH2, L-arginyl-L-lysyl-L-aspartyl-L-valyl-D-alaninamide triacetate] (H-RKDV[dA]-NH2) | – | – | – | 18983 ± 2651 | 20305 ± 2347 | 22966 | 18640 ± 1830 | 28559 ± 3663 | 30181 ± 3895 | 25515 ± 2486 | 21887 ± 3143

Source: patent publication US4305852A, “Polypeptide compositions” (American Home Products Corporation, priority 1980, dated 1981)
